# Laboratory results from the supplement of paper PMC10307832.
# Experiments:
# Test in all cases: relative viability (nuclei count vs DMSO), 5 days (fraction); higher = more cells survive
# Erlotinib + Dasatinib = compound: C#Cc1cccc(Nc2ncnc3cc(OCCOC)c(OCCOC)cc23)c1 [Erlotinib] + Cc1nc(Nc2ncc(C(=O)Nc3c(C)cccc3Cl)s2)cc(N2CCN(CCO)CC2)n1 [Dasatinib] (partner 0.075 µM)
# Summary of the method: (§1)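 Dosing by pin tool came one day after lung cancer cell lines were seeded in 1536-well plates, using either one drug or a fixed anchor-drug dose plus five library-drug doses (not always all listed) in √10 steps. After 5 days, nuclei were counted on 4× images. Relative viability is treated-well nuclei count divided by vehicle-well nuclei count, and values are medians of duplicate plates.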
# Erlotinib + Pemetrexed = compound: C#Cc1cccc(Nc2ncnc3cc(OCCOC)c(OCCOC)cc23)c1 [Erlotinib] + Nc1nc2[nH]cc(CCc3ccc(C(=O)N[C@@H](CCC(=O)O)C(=O)O)cc3)c2c(=O)[nH]1 [Pemetrexed] (partner 0.2 µM)
# Summary of the method: as §1
# AT9283 + Foretinib = compound: O=C(Nc1c[nH]nc1-c1nc2ccc(CN3CCOCC3)cc2[nH]1)NC1CC1 [AT9283] + COc1cc2c(Oc3ccc(NC(=O)C4(C(=O)Nc5ccc(F)cc5)CC4)cc3F)ccnc2cc1OCCCN1CCOCC1 [Foretinib] (partner 0.25 µM)
# Summary of the method: as §1
# AT9283 + Lapatinib = compound: O=C(Nc1c[nH]nc1-c1nc2ccc(CN3CCOCC3)cc2[nH]1)NC1CC1 [AT9283] + CS(=O)(=O)CCNCc1ccc(-c2ccc3ncnc(Nc4ccc(OCc5cccc(F)c5)c(Cl)c4)c3c2)o1 [Lapatinib] (partner 2 µM)
# Summary of the method: as §1
# AT9283 + Linsitinib = compound: O=C(Nc1c[nH]nc1-c1nc2ccc(CN3CCOCC3)cc2[nH]1)NC1CC1 [AT9283] + C[C@]1(O)C[C@@H](c2nc(-c3ccc4ccc(-c5ccccc5)nc4c3)c3c(N)nccn32)C1 [Linsitinib] (partner 1 µM)
# Summary of the method: as §1
Cell Line,relative viability (Erlotinib + Dasatinib; first compound 0.02 µM),relative viability (Erlotinib + Dasatinib; first compound 0.2 µM),relative viability (Erlotinib + Dasatinib; first compound 0.6325 µM),relative viability (Erlotinib + Dasatinib; first compound 2 µM),relative viability (Erlotinib + Pemetrexed; first compound 0.02 µM),relative viability (Erlotinib + Pemetrexed; first compound 0.2 µM),relative viability (Erlotinib + Pemetrexed; first compound 0.6325 µM),relative viability (Erlotinib + Pemetrexed; first compound 2 µM),relative viability (AT9283 + Foretinib; first compound 0.003 µM),relative viability (AT9283 + Foretinib; first compound 0.03 µM),relative viability (AT9283 + Foretinib; first compound 0.09487 µM),relative viability (AT9283 + Foretinib; first compound 0.3 µM),relative viability (AT9283 + Lapatinib; first compound 0.003 µM),relative viability (AT9283 + Lapatinib; first compound 0.03 µM),relative viability (AT9283 + Lapatinib; first compound 0.09487 µM),relative viability (AT9283 + Lapatinib; first compound 0.3 µM),relative viability (AT9283 + Linsitinib; first compound 0.003 µM),relative viability (AT9283 + Linsitinib; first compound 0.03 µM),relative viability (AT9283 + Linsitinib; first compound 0.09487 µM),relative viability (AT9283 + Linsitinib; first compound 0.3 µM)
NCI-H1975,0.391,0.407,0.372,0.205,0.288,0.294,0.292,0.263,0.947,0.949,0.82,0.326,0.891,0.225,0.208,0.196,0.932,0.769,0.341,0.223
EKVX,0.544,0.242,0.321,0.223,0.411,0.283,0.286,0.19,0.775,0.728,0.626,0.257,0.241,0.188,0.128,0.108,0.966,0.79,0.434,0.204
COR-L23,0.552,0.554,0.457,0.452,0.205,0.178,0.195,0.19,1.01,0.623,0.216,0.182,1,0.12,0.129,0.172,0.867,0.152,0.0945,0.135
NCI-H2228,0.625,0.492,0.5,0.368,0.335,0.295,0.362,0.337,0.968,0.613,0.26,0.104,1.06,0.367,0.115,0.141,0.823,0.632,0.17,0.175
NCI-H647,0.274,0.117,0.221,0.144,0.173,0.187,0.19,0.151,1.41,0.396,0.273,0.202,1.06,0.124,0.123,0.0895,1.11,0.17,0.151,0.11
NCI-H1651,0.37,0.39,0.469,0.387,0.619,0.417,0.509,0.52,0.837,0.779,0.638,0.396,0.83,0.481,0.215,0.279,1.05,0.864,0.348,0.357
NCI-H1993,0.579,0.531,0.553,0.586,0.63,0.466,0.544,0.564,0.82,0.603,0.61,0.534,0.813,0.672,0.631,0.632,0.788,0.686,0.61,0.588
HCC-827,0.148,0.152,0.195,0.126,0.182,0.147,0.139,0.156,1.05,0.745,0.331,0.244,0.195,0.216,0.191,0.164,0.995,0.843,0.463,0.371
SK-LU-1,0.185,0.211,0.186,0.164,1.07,1.01,1.05,–,0.925,0.385,0.214,0.27,0.933,0.371,0.274,0.272,1.1,0.349,0.323,0.356
NCI-H1793,0.342,0.249,0.392,0.272,1.01,0.441,0.825,0.52,0.729,0.484,0.256,0.219,0.743,0.273,0.16,0.256,0.941,0.859,0.339,0.209
NCI-H1944,0.213,0.219,0.237,0.21,0.586,0.506,0.536,0.358,0.821,0.373,0.267,0.254,0.731,0.598,0.271,0.204,1.17,0.973,0.528,0.331
BEN,0.318,0.381,0.413,0.3,0.766,0.83,1.03,0.766,0.47,0.65,0.185,0.19,0.582,0.546,0.158,0.243,0.718,0.894,0.2,0.227
H3255,0.322,0.347,0.167,0.278,0.528,0.387,0.383,0.233,0.924,0.794,0.734,0.183,0.22,0.258,0.173,0.159,0.877,0.91,0.298,0.132
NCI-H1437,0.357,0.433,0.46,0.339,0.33,0.33,0.395,0.27,1.33,0.974,0.533,0.323,0.702,0.246,0.157,0.155,1.06,0.691,0.181,0.158
CAL-12T,0.632,0.307,0.266,0.15,1.43,1.15,0.929,0.662,1.1,0.773,0.414,0.283,0.587,0.299,0.23,0.238,0.905,0.286,0.22,0.202
